Experimental data as given in paper PMC11758220, “Identification of a Privileged Scaffold for Inhibition of Sterol Transport Proteins through the Synthesis and Ring Distortion of Diverse, Pseudo-Natural Products” (ACS Central Science, 2025).

What was measured:
Format in all cases: binding
ORP1 = target: T1, ORP1 (Homo sapiens, UniProt Q9BXW6); assay: Fluorescence polarisation (FP) competition with NBD-cholesterol, ORP1; conditions: single dose, Dose = 10 µM
T1 construct: ORP1(534-950); host or cells: E. coli BL21(DE3)
T1 sequence (Q9BXW6 534-950): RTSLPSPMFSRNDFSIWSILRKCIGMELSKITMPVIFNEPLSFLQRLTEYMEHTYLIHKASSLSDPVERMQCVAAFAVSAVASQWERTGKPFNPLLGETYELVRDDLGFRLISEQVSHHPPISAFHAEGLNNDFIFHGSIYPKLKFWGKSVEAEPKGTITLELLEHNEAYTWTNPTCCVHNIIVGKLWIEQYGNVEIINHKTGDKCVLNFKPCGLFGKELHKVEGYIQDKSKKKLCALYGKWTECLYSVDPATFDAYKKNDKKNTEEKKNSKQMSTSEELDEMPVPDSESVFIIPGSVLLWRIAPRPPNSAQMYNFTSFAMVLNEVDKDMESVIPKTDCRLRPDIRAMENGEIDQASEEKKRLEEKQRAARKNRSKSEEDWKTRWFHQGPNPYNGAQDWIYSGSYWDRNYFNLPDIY
From the text: (§1) Protein expression constructs
(§2) Human ASTER domains of Aster-A(359-547), -B(364-552) and -C(318-504) were subcloned into a pGEX-6p-2rbs vector, thus introducing the cloning artifact ‘GPLGS’.3 The pGEX-6P-1-GST-OSBP(377- […]
(§3) a gift from James H. Hurley (University of California).4 The pHIS_2His6_Thrombin_STARD4(2-205;C75S) plasmid was a gift from Young Jun Im (Chonnam National University).5 STARD5A was a gift from Nicola Burgess-Brown (Addgene plasmid #42392; http://n2t.net/addgene:42392; […]
(§4) Protein expression and purification […]
(§5) vectors including an N-terminal PreScission-cleavable glutathione S-transferase (GST)-tag were expressed in Escherichia coli (E. coli) OverExpress C41 in Terrific Broth (TB) medium for 16 h at 18 °C after the induction with 0.1 mM isopropyl β-D-1-thiogalactopyranoside (IPTG). Cells were harvested at 3500 × g for 15 minutes and lysed by sonication in buffer containing 50 mM HEPES pH 7.5, 300 mM NaCl, 10 %v/v glycerol, 5 mM dithiothreitol (DTT), 0.1 %v/v Triton X-100 and protease inhibitor mix HP plus (Serva). The lysate was purified by affinity chromatography on a GSTrap FF column (Cytiva) using an ÄKTA Start (Cytiva) in buffer containing 50 mM HEPES pH 7.5, 300 mM NaCl, 10 %v/v glycerol, 5 mM DTT and 0.01 %v/v Triton X-100. The GST-tag was cleaved overnight on the column at 4 °C. The Aster sterol binding domains were further purified by size-exclusion chromatography (SEC) on a HiLoad 16/600 Superdex 75 pg (Cytiva) in buffer containing 20 mM HEPES pH 7.5, 300 mM NaCl, 10 %v/v […]
(§6) STARD5(6-213) harboring an N-terminal His6-Tag were expressed in E. coli BL21(DE3) in Luria-Bertani Broth (LB) medium for approximately 16 h at 18 °C after induction with 0.15 mM IPTG. Cells were harvested at 3500 × g for 15 minutes and lysed by sonication in buffer containing 50 mM HEPES pH 7.5, 150 mM NaCl, 5 %v/v glycerol, 5 mM DTT, 0.1 %v/v Triton X -100 and ethylenediaminetetraacetic acid (EDTA)-free protease inhibitor cocktail (Sigma-Aldrich). The cleared lysate was purified by affinity chromatography on a Ni-NTA Superflow Cartridge (Qiagen) using an ÄKTA Start (Cytiva) in buffer containing 50 mM HEPES pH 7.5, 150 mM NaCl, 5 %v/v glycerol, 5 mM DTT. START domains were eluted by using elution buffer containing 50 mM HEPES pH 7.5, 150 mM NaCl, 5 %v/v glycerol, 5 mM DTT and 500 mM imidazole. Proteins were further purified by SEC on a HiLoad 16/600 Superdex 75 pg (Cytiva) in buffer containing 20 mM HEPES pH 7.5, 150 mM NaCl, 5 %v/v glycerol and 2 mM DTT.
(§7) The ORP domain of human OSBP(377-807) in the pGEX-6p-1 vector with an N-terminal PreScission-cleavable GST-tag was expressed in E. coli OverExpress C41 in LB medium for 16 h at 18 °C after induction with 0.1 mM IPTG. Cells were harvested at 3500 × g for 15 minutes and lysed by sonication in buffer containing 20 mM HEPES pH 7.5, 300 mM NaCl, 10 %v/v glycerol, 5 mM DTT, 0.1 %v/v Triton X-100 and EDTA-free protease inhibitor cocktail (Sigma-Aldrich). The cleared lysate was purified by affinity chromatography on a GSTrap HF column (Cytiva) using an ÄKTA Start (Cytiva) in buffer containing 20 mM HEPES pH 7.5, 300 mM NaCl, 10 %v/v glycerol, 5 mM DTT. OSBP(377 -807) was eluted by using elution buffer containing 20 mM HEPES pH 7.5, 300 mM NaCl, 10 %v/v glycerol, 5 mM DTT and 10 mM reduced glutathione. Proteins were further purified by SEC on a HiLoad 16/600 Superdex 75 pg (Cytiva) using an ÄKTA Explorer (Cytiva) in buffer containing 20 mM HEPES pH 7.5, 150 mM NaCl, 10 %v/v glycerol and 2 mM DTT.
(§8) The ORP domains of human ORP1(534-950) in pET24b(+) and ORP2(49-480) in the pET24b(+) vector including an N-terminal His6-Tag were expressed in E. coli BL21(DE3) in TB medium for approximately 16 h at 18 °C after induction with 0.1 mM IPTG. Cells were collected at 3500 × g for 15 minutes and lysed by sonification in buffer containing 10 mM Tris-HCl pH 8, 300 mM NaCl, 5 % glycerol, 2 mM DTT, 0.1 % Triton X-100 and EDTA-free protease inhibitor cocktail (Sigma-Aldrich). The cleared […]

STARD1 = target: T2, STARD1 (Homo sapiens, UniProt P49675); assay: Fluorescence polarisation (FP) competition with NBD-cholesterol, STARD1; conditions: single dose, Dose = 10 µM
T2 construct: STARD1(66-284); made in house; host or cells: E. coli BL21(DE3)
T2 sequence (P49675 66-284): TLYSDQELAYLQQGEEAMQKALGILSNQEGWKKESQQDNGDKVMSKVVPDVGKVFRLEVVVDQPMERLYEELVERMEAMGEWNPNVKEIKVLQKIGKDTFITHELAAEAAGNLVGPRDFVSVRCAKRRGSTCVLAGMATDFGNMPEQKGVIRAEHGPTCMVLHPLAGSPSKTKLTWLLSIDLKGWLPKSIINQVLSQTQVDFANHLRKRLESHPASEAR

Aster-C = target: T3, Aster-C (Homo sapiens, UniProt Q8IYS0); assay: Fluorescence polarisation (FP) competition with NBD-cholesterol, Aster-C; conditions: for inhibition at 10 µM / Aster-C (FP) inhibition: single dose, Dose = 10 µM
T3 construct: -C(318-504); GST (PreScission-cleavable) (N, cleaved yes); made in house; host or cells: E. coli OverExpress C41
From the text: as §1, §2, §3, §4, §5, §6, §7, §8

T3 sequence (Q8IYS0 318-504): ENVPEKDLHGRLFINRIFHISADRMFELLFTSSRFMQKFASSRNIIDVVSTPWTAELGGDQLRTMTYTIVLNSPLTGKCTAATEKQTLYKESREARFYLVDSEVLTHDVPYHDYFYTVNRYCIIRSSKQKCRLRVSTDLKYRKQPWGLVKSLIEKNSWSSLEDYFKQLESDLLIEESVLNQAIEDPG

Cc1cc(C)c2c3c([nH]c2c1)[C@@]1(C)CC[C@@H](O)C[C@H]1CC3 [Compound 10j]
inhibition at 10 µM (ORP1): 11.7%
inhibition at 10 µM (STARD1): 17%
inhibition at 10 µM (Aster-C): 0.8%

CCOC(=O)c1ccc2[nH]c3c(c2c1)CC[C@@H]1C[C@H](O)CC[C@]31C [Compound 10k]
ORP1 (FP) inhibition (ORP1): 10.0%
STARD1 (FP) inhibition (STARD1): -12%
Aster-C (FP) inhibition (Aster-C): -6%

C[C@]12CC[C@@H](O)C[C@H]1CCC(=O)c1ccccc1NC2=O [Compound 11a]
ORP1 (FP) inhibition (ORP1): -2.5%
STARD1 (FP) inhibition (STARD1): 7%
Aster-C (FP) inhibition (Aster-C): -3.2%

C[C@]12CC[C@@H](O)C[C@H]1CCC(=O)c1cc(Br)ccc1NC2=O [Compound 11b]
inhibition at 10 µM (ORP1): -1.7%
inhibition at 10 µM (STARD1): 0%
inhibition at 10 µM (Aster-C): -2.4%

Cc1ccc2c(c1)C(=O)CC[C@@H]1C[C@H](O)CC[C@]1(C)C(=O)N2 [Compound 11c]
inhibition at 10 µM (ORP1): -8.3%
inhibition at 10 µM (STARD1): 25%
inhibition at 10 µM (Aster-C): -5.6%

COc1ccc2c(c1)C(=O)CC[C@@H]1C[C@H](O)CC[C@]1(C)C(=O)N2 [Compound 11d]
inhibition at 10 µM (ORP1): -3.3%
inhibition at 10 µM (STARD1): 5%
inhibition at 10 µM (Aster-C): 1.6%

C[C@]12CC[C@@H](O)C[C@H]1CCC(=O)c1cc(C(F)(F)F)ccc1NC2=O [Compound 11e]
inhibition at 10 µM (ORP1): -3.3%
inhibition at 10 µM (STARD1): 10%
inhibition at 10 µM (Aster-C): -1.6%

C[C@]12CC[C@@H](O)C[C@H]1CCC(=O)c1cc(Cl)cc(F)c1NC2=O [Compound 11f]
ORP1 (FP) inhibition (ORP1): -6.7%
STARD1 (FP) inhibition (STARD1): -3.33%
Aster-C (FP) inhibition (Aster-C): -0.8%

Cc1cc(C)c2c(c1)NC(=O)[C@@]1(C)CC[C@@H](O)C[C@H]1CCC2=O [Compound 11g]
inhibition at 10 µM (ORP1): -6.7%
inhibition at 10 µM (STARD1): -8%
inhibition at 10 µM (Aster-C): -0.8%

Cc1ccc2[nH]c3c(c(=O)c2c1)C[C@@H]1C[C@H](O)CC[C@]31C [Compound 12]
inhibition at 10 µM (ORP1): -6.7%
inhibition at 10 µM (STARD1): 5%
inhibition at 10 µM (Aster-C): 0%

Cc1ccc2c(c1)[C@]1(O)CC[C@@H]3C[C@H](O)CC[C@]3(C)C1=N2 [Compound 14a]
inhibition at 10 µM (ORP1): 65%
inhibition at 10 µM (STARD1): 17%
inhibition at 10 µM (Aster-C): -1%

COc1ccc2c(c1)[C@]1(O)CC[C@@H]3C[C@H](O)CC[C@]3(C)C1=N2 [Compound 14b]
inhibition at 10 µM (ORP1): 0%
inhibition at 10 µM (STARD1): 10%
inhibition at 10 µM (Aster-C): 3.2%

Cc1cc(C)c2c(c1)N=C1[C@@]2(O)CC[C@@H]2C[C@H](O)CC[C@]12C [Compound 14c]
inhibition at 10 µM (ORP1): 0%
inhibition at 10 µM (STARD1): 10%
inhibition at 10 µM (Aster-C): 3.2%

C[C@]12CC[C@@H]3C[C@H]1CC[C@@]21C(=Nc2ccccc21)O3 [Compound 15a]
inhibition at 10 µM (ORP1): 10%
inhibition at 10 µM (STARD1): 18%
IC50 (Aster-C; mean of three experiments run in technical duplicates): > 80 µM
inhibition at 10 µM (Aster-C): -4%
